The source made the active and inactive calls. No cut-off for these calls is given here.
How the values were obtained:
[1] = molecular target: T1, 11-beta-hydroxysteroid dehydrogenase type 2 (Homo sapiens) (UniProt P80365); experiment: Inhibition of 11beta-HSD2 in human kidney microsomes using [3H]-cortisol as substrate assessed as formation of cortisone at 100 uM after 30 mins by radiometric analysis relative to control; details: Microsome
T1 sequence (whole entry): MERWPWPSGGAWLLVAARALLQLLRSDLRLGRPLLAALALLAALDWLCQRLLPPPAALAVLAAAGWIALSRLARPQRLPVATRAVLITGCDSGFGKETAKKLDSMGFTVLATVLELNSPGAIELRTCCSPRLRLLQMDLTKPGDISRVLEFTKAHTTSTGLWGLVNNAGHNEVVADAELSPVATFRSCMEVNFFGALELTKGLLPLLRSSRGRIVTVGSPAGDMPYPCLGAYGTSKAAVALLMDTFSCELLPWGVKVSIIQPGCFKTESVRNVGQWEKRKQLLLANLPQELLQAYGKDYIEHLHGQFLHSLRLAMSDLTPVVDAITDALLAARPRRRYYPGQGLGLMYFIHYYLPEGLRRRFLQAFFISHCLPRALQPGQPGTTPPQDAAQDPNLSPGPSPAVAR

[2] = molecular target: T2, 11-beta-hydroxysteroid dehydrogenase type 2 (Rattus norvegicus) (UniProt P50233); experiment: Inhibition of 11beta-HSD2 in rat kidney microsomes using [3H]-CORT as substrate assessed as formation of 11-DHC at 100 uM after 30 mins by radiometric analysis relative to control; details: Microsome
T2 sequence (whole entry): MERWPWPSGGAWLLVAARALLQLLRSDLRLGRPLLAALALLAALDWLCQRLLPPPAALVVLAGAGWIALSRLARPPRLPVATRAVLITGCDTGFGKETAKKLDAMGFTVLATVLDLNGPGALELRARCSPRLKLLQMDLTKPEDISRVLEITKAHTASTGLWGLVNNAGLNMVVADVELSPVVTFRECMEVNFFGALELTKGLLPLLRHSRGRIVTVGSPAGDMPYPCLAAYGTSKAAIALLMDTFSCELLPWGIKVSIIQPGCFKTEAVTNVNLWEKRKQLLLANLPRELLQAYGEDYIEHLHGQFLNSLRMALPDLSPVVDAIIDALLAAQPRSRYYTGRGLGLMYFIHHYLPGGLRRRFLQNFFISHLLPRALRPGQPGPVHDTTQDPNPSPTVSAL

[3] = molecular target: T3, 11-beta-hydroxysteroid dehydrogenase 1 (Homo sapiens, UniProt P28845); experiment: Inhibition of human 11beta-HSD1 transfected in CHOP cells at 100 uM relative to control; type: cell-based
Target sequence in this assay (P28845 whole entry, looked up): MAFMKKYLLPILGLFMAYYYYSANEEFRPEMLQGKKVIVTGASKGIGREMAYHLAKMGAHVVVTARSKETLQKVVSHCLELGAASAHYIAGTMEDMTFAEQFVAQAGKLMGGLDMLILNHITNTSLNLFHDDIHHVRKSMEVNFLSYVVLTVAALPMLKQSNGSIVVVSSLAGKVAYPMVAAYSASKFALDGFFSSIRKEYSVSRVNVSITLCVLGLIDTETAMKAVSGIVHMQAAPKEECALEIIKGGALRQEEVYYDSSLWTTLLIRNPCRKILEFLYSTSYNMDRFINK

[4] = molecular target: 11-beta-hydroxysteroid dehydrogenase 1 (Rattus norvegicus) (UniProt P16232); experiment: Inhibition of 11beta-HSD1 in Sprague-Dawley rat leydig cells […] relative to control; details: 100 uM
[5] = test system: J774.A1; experiment: Antiinflammatory activity in mouse J774A1 cells assessed as LPS-induced TNFalpha production at 10 uM incubated 2 hrs prior to LPS challenge measured after 24 hrs by ELISA relative to vehicle-treated control; type: functional
[6] = molecular target: 11-beta-hydroxysteroid dehydrogenase 1 (Rattus norvegicus) (UniProt P16232); experiment: Inhibition of 11beta-HSD1 in rat testis microsomes using [3H]-11-DHC as substrate assessed as formation of CORT at 100 uM after 60 to 90 mins by radiometric analysis relative to control; details: Microsome
[7] = molecular target: T3, 11-beta-hydroxysteroid dehydrogenase 1; experiment: Inhibition of 11beta-HSD1 in human liver microsomes using [3H]-cortisone as substrate assessed as formation of cortisol at 100 uM after 60 to 90 mins by radiometric analysis relative to control; details: Microsome
Target sequence in this assay (P28845 whole entry, looked up): as above

[8] = molecular target: T4, 11-beta-hydroxysteroid dehydrogenase 1 (Rattus norvegicus, UniProt P16232); experiment: Inhibition of 11beta-HSD1 in Sprague-Dawley rat leydig cells […]
[9] = molecular target: T3, 11-beta-hydroxysteroid dehydrogenase 1; experiment: Inhibition of 11beta-HSD1 in human liver microsomes using [3H]-cortisone as substrate assessed as formation of cortisol after 60 to 90 mins by radiometric analysis; design: species or system Microsome
Target sequence in this assay (P28845 whole entry): as the sequence (P28845 whole entry, looked up) above

[10] = molecular target: T3, 11-beta-hydroxysteroid dehydrogenase 1; experiment: Inhibition of human 11beta-HSD1 transfected in CHOP cells; type: cell-based
Target sequence in this assay (P28845 whole entry): as the sequence (P28845 whole entry, looked up) above

[11] = molecular target: T3, 11-beta-hydroxysteroid dehydrogenase 1; experiment: Ratio of curcumin IC50 to compound IC50 for human 11beta-HSD1 transfected in CHOP cells; type: cell-based
Target sequence in this assay (P28845 whole entry, looked up): as above

[12] = molecular target: T4, 11-beta-hydroxysteroid dehydrogenase 1; experiment: Inhibition of 11beta-HSD1 in rat testis microsomes using [3H]-11-DHC as substrate assessed as formation of CORT after 60 to 90 mins by radiometric analysis; design: species or system Microsome

11-beta-hydroxysteroid dehydrogenase 1 (Rattus norvegicus), sequence (P16232 whole entry, looked up): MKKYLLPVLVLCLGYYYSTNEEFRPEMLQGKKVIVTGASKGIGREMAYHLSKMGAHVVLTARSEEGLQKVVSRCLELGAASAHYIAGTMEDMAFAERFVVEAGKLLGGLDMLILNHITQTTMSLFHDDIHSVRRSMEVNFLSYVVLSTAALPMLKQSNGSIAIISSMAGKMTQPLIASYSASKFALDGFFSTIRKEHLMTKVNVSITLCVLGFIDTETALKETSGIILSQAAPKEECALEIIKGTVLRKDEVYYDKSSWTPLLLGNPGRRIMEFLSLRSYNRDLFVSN
T4 sequence (P16232 whole entry): as the sequence (P16232 whole entry, looked up) above

Structure (SMILES)	inhibition [1] [%]	inhibition [2] [%]	inhibition [3] [%]	inhibition [4] [%]	inhibition [5]	inhibition [6] [%]	inhibition [7] [%]	IC50 [8] [µM]	IC50 [9] [µM]	IC50 [10] [µM]	Ratio IC50 [11]	IC50 [12] [µM]
COc1cc(/C=C2\CC/C(=C\c3ccc(OC4CCCCO4)c(OC)c3)C2=O)ccc1OC1CCCCO1 (stereo not given)	0	11	26	18	inactive	13	26					
C=CCOc1ccc(/C=C2\CCC/C(=C\c3ccc(OCC=C)c(OC)c3)C2=O)cc1OC	6	8	16	6		15	7					
O=C(/C=C/c1ccc(OC2CCCCO2)cc1)/C=C/c1ccc(OC2CCCCO2)cc1 (stereo not given)	13	24	54		inactive	13	36	17.2				
C=CCOc1ccc(/C=C2\CC/C(=C\c3ccc(OCC=C)cc3)C2=O)cc1	0	15	23	10		9	28					
O=C1/C(=C/c2ccc(O)cc2)CCC/C1=C\c1ccc(O)cc1	0	24				63		0.633	1.94	0.195	5	
O=C1/C(=C/c2ccc(OC3CCCCO3)cc2)CCC/C1=C\c1ccc(OC2CCCCO2)cc1 (stereo not given)	17	48	28	28	inactive	45	14					
COc1cc(/C=C2\CCC/C(=C\c3ccc(OC4CCCCO4)c(OC)c3)C2=O)ccc1OC1CCCCO1 (stereo not given)	6	14	40	8			37					65.4
C=CCOc1ccc(/C=C2\CCC/C(=C\c3ccc(OCC=C)cc3)C2=O)cc1	6	23	18	8		19	18					
CN(C)c1ccc(/C=C2\CCC/C(=C\c3ccc(N(C)C)cc3)C2=O)cc1	21	20	26	37	inactive	16	14					
CN(C)CCCOc1ccc(/C=C2\CC/C(=C\c3ccc(OCCCN(C)C)cc3)C2=O)cc1	24	12	49			2	15	4.17				
O=C1/C(=C/c2ccccc2Br)CC/C1=C\c1ccccc1Br	36	22						1.45	6.11	0.144	9	2.88
COc1cc(/C=C/C(=O)/C=C/c2ccc(OC3CCCCO3)c(OC)c2)ccc1OC1CCCCO1 (stereo not given)	0	16	28			19	28	52.5				
COc1cc(/C=C2\CCC/C(=C\c3cc(OC)c(OC)c(OC)c3)C2=O)cc(OC)c1OC	13	23	14	42	inactive	35	21					
COc1cc(/C=C/C(=O)/C=C/c2ccc(O)c(OC)c2)ccc1O	39	35						0.292	70.9	0.257	5	16.1
CN(C)c1ccc(/C=C/C(=O)/C=C/c2ccc(N(C)C)cc2)cc1	0	13	29	10	inactive	0	24					
C=CCOc1ccc(/C=C/C(=O)/C=C/c2ccc(OCC=C)cc2)cc1	2	16	4	22		0	35					
CCOc1ccc(/C=C/C(=O)/C=C/c2ccc(OCC)cc2)cc1	8	27	9			7	36	9.95				
O=C(/C=C/c1ccc(F)cc1)/C=C/c1ccc(F)cc1	26	22			inactive	2	37	0.229		0.507	9	
CN(C)c1ccc(/C=C2\CC/C(=C\c3ccc(N(C)C)cc3)C2=O)cc1	0	1	16	13	inactive	0	15					
COc1cc(/C=C2\CC/C(=C\c3cc(OC)c(OC)c(OC)c3)C2=O)cc(OC)c1OC	5	9	31	18	inactive	12	16					
C=CCOc1ccc(/C=C/C(=O)/C=C/c2ccc(OCC=C)c(OC)c2)cc1OC	13	19	1	18		9	14					
COc1cc(/C=C2\CC/C(=C\c3ccc(O)c(OC)c3)C2=O)ccc1O	13	34	17	19		52	49					
O=C1/C(=C/c2cccc(C(F)(F)F)c2F)CC/C1=C\c1cccc(C(F)(F)F)c1F	0	5	24	22		2	23					
COc1cc(/C=C/C(=O)/C=C/c2cc(OC)c(OC)c(OC)c2)cc(OC)c1OC	1	11	40	5	inactive	0	16					
O=C1/C(=C/c2ccc(OC3CCCCO3)cc2)CC/C1=C\c1ccc(OC2CCCCO2)cc1 (stereo not given)	0	13	9	22	inactive	11	30					
CCOc1ccc(/C=C2\CCC/C(=C\c3ccc(OCC)cc3)C2=O)cc1	11	14	16	26		17	17					
O=C1/C(=C/c2ccc(O)cc2)CC/C1=C\c1ccc(O)cc1	0	17	12	21		32	39					
O=C(/C=C/c1ccc(O)cc1)/C=C/c1ccc(O)cc1	44	7				41		0.986	4.42	0.832	5	
C=CCOc1ccc(/C=C2\CC/C(=C\c3ccc(OCC=C)c(OC)c3)C2=O)cc1OC	10	0	31	17		14	13					

From ChEMBL document CHEMBL2401685 (Bioorg Med Chem Lett, 2013)
